Measured values published in publication PMC7662280 (Molecules, 2020).
pIC50: −log10 of the molar value. Values joined by “and” are separate entries in the source; they are usually repeats but may differ in a detail not shown here. Equal values may be shown once. Read-outs that look alike come from different tables or passages of the source.

What was measured:
[1] = biological target: T1, soybean lipoxygenase (isozyme LOX-1) (Glycine max, UniProt P08170); conditions: previously published, cited from earlier work; for IC50: read-out: LOX IC50 (μM) ± SEM
T1 construct: purchased Sigma Chemical, Co. (St. Louis, MO, USA)
T1 sequence (P08170 1-839): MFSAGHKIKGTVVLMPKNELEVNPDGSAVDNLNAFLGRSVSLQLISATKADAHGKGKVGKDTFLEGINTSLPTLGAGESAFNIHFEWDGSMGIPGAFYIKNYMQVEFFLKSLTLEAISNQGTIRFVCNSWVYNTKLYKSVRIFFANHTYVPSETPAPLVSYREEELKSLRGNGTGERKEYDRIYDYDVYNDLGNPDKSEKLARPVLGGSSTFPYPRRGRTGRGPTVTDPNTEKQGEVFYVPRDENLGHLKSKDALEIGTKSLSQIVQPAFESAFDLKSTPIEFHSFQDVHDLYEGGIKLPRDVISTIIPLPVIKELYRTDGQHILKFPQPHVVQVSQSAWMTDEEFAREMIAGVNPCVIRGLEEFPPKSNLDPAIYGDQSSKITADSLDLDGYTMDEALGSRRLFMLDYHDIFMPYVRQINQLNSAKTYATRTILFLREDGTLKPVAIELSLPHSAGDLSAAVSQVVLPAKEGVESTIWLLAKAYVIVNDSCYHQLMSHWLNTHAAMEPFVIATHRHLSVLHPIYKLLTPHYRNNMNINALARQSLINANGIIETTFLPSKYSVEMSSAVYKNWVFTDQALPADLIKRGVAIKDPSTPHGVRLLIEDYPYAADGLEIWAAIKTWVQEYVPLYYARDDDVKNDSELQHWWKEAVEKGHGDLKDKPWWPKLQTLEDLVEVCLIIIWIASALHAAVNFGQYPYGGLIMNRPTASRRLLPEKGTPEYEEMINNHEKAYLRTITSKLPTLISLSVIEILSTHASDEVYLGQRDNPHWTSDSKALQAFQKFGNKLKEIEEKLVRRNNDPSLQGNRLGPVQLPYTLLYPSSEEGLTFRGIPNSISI

[2] = Inhibition of linoleic acid peroxidation induced by AAPH; conditions: anti-lipid peroxidation of linoleic acid, 100 μM
eel AChE = biological target: T2, eel AChE (Electrophorus electricus, UniProt O42275); assay: biochemical; conditions: for inhibition at 100 µM: n.a. = no activity under the experimental conditions, read-out: AChE (% Inhibition at 100 μM) ± SEM; for IC50: acetylthiocholine substrate, read-out: AChE IC50 (μM) ± SEM
T2 construct: purchased Sigma-Aldrich Type VI-S

[3] = Experimental lipophilicity as RM values by RPTLC; format: physicochemical; conditions: silica gel impregnated with liquid paraffin, methanol/water 77/23, 24 °C
[4] = biological target: T1, soybean lipoxygenase (isozyme LOX-1); assay: Soybean lipoxygenase inhibition study; format: biochemical; conditions: for IC50: soybean lipoxygenase, sodium linoleate substrate, read-out: LOX IC50 (μM) ± SEM; for inhibition at 100 µM: read-out: LOX (% Inhibition at 100 μM) ± SEM, soybean lipoxygenase, 100 μM
bovine COX-2 = biological target: T3, bovine COX-2 (Bos taurus, UniProt O62698); assay: biochemical; format: biochemical
T3 sequence (O62698 18-604): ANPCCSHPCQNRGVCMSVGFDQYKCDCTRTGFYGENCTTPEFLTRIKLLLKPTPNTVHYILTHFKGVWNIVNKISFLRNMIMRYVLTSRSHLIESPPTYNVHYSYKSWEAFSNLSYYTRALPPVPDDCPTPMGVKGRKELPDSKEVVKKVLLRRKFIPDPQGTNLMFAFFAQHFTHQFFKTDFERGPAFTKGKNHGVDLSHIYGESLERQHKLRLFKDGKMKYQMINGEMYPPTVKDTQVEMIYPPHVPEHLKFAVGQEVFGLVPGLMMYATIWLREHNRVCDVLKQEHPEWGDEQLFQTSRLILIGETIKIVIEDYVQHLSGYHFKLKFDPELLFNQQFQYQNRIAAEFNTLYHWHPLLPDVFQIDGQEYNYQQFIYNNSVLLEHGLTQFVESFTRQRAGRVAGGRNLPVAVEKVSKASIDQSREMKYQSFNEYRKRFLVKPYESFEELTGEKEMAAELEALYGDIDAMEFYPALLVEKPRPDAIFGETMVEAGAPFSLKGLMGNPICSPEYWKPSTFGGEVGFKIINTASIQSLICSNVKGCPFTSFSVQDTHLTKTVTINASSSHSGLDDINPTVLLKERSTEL

T2 sequence (O42275 24-633): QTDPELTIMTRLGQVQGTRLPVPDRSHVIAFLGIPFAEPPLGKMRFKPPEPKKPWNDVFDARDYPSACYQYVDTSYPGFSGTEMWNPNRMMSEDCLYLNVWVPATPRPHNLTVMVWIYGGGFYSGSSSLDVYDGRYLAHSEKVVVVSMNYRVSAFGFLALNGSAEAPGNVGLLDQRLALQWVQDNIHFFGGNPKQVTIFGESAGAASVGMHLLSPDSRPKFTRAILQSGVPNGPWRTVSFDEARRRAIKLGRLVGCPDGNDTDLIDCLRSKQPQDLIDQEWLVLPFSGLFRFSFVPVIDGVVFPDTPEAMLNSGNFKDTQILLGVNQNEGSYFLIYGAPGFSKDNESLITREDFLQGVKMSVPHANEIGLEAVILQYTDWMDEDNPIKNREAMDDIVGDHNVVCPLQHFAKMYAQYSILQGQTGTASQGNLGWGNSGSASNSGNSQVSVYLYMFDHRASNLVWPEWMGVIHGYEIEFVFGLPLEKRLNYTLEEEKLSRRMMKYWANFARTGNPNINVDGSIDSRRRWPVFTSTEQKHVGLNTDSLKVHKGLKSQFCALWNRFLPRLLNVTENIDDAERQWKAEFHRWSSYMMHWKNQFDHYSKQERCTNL

Row | Molecule | AAPH Inhibition (%, at 100 μΜ) [2] [%] | inhibition at 100 µM (eel AChE) [%] | RM ± S.D. [3] | IC50 [4] [µM] | also measured
1 | O=C1/C(=C/c2cccc3ccccc23)CNC/C1=C\c1cccc2ccccc12 [1a, (3E,5E)-3,5-bis(naphthalen-1-ylmethylene)piperidin-4-one] |  |  |  |  | IC50 [1]: 37 µM
2 | O=C1/C(=C/c2cccs2)CNC/C1=C\c1cccs1 [1b, (3E,5E)-3,5-bis(thiophen-2-ylmethylene)piperidin-4-one] |  |  |  |  | IC50 [1]: 330 µM
3 | O=C1/C(=C/c2c[nH]c3ccccc23)CNC/C1=C\c1c[nH]c2ccccc12 [1c, (3E,5E)-3,5-bis((1H-indol-3-yl)methylene)piperidin-4-one] |  |  |  |  | IC50 [1]: 380 µM
4 | O=C1/C(=C/c2ccc3[nH]ccc3c2)CNC/C1=C\c1ccc2[nH]ccc2c1 [1d, (3E,5E)-3,5-bis((1H-indol-5-yl)methylene)piperidin-4-one] |  |  |  |  | IC50 [1]: 410 µM
5 | O=C1/C(=C/c2ccccc2)CNC/C1=C\c1ccccc1 [1g, (3E,5E)-3,5-dibenzylidenepiperidin-4-one] |  |  |  |  | LOX (% Inhibition at 100 μM) ± SEM [1]: 8% ± 0.2
6 | O=C1/C(=C/c2ccc(F)cc2)CNC/C1=C\c1ccc(F)cc1 [1j, (3E,5E)-3,5-bis(4-fluorobenzylidene)piperidin-4-one] | 36.2 ± 1.8 |  |  |  | 
7 | O=C1/C(=C/c2cccc3ccccc23)CC/C1=C\c1cccc2ccccc12 [1k, (2E,5E)-2,5-bis(naphthalen-1-ylmethylene)cyclopentanone] | 100 ± 2.2 | 36 | 0.872 ± 0.039 | 14 | 
8 | O=C1/C(=C/c2ccccc2)COC/C1=C\c1ccccc1 [1l, (3E,5E)-3,5-dibenzylidenedihydro-2H-pyran-4(3H)-one] | 42 ± 1.5 | 25 |  |  | inhibition at 100 µM [4]: < 10%
9 | O=C1/C(=C/c2cccc3ccccc23)COC/C1=C\c1cccc2ccccc12 [1m, (3E,5E)-3,5-bis(naphthalen-1-ylmethylene)dihydro-2H-pyran-4(3H)-one] | 100 ± 2.8 | 32 | 0.577 ± 0.027 | 50.5 | 
10 | O=C1/C(=C/c2cccc3ccccc23)CSC/C1=C\c1cccc2ccccc12 [1n, (3Z,5Z)-3,5-bis(naphthalen-1-ylmethylene)dihydro-2H-thiopyran-4(3H)-one] | 100 ± 2.5 | 18 | 0.131 ± 0.142 | 57.5 | 
11 | S=C1/C(=C/c2ccccc2)CNC/C1=C\c1ccccc1 [1o, (3E,5E)-3,5-dibenzylidenepiperidine-4-thione] | 8 ± 0.01 |  | −0.848 ± 0.19 | 10 | inhibition at 100 µM [4]: < 10%
12 | S=C1/C(=C/c2cccc3ccccc23)CNC/C1=C\c1cccc2ccccc12 [1p, (3E,5E)-3,5-bis(naphthalen-1-ylmethylene)piperidine-4-thione] | 100 ± 3.3 | 26.6 | −0.679 ± 0.035 | 35 | 
13 | O=C1/C(=C/c2cc3ccccc3o2)CNC/C1=C\c1cc2ccccc2o1 [1q, (3E,5E)-3,5-bis(benzofuran-2-ylmethylene)piperidin-4-one] | 13 ± 0.2 | 16.5 | −0.019 ± 0.143 |  | inhibition at 100 µM [4]: 3%
14 | O=C(O)/C=C/c1ccccc1 [2a] | 78 ±1.6 | 4.6 | −0.485 ± 0.044 |  | 
15 | O=C(O)/C=C/c1cccc2ccccc12 [2b] | 78 ± 0.7 |  | −0.576 ± 0.077 |  | pIC50 [4]: 4.56
16 | O=C(O)/C=C/c1ccc(O)c(O)c1 [2c, caffeic acid] | 80 ± 2.2 |  |  |  | COX-2 (% Inhibition at 100 μM) ± SEM (bovine COX-2; bovine COX-2, 100 μM, n.a. = no activity under the experimental conditions): presented anti-COX-2 activity; IC50 (bovine COX-2; bovine COX-2, read-out: COX-2 IC50 (μM) ± SEM): 57.5 µM
17 | O=C1/C(=C/c2cccc3ccccc23)CN(C(=O)C=Cc2ccccc2)C/C1=C\c1cccc2ccccc12 [3a, (3E,5E)-1-cinnamoyl-3,5-bis(naphthalen-1-ylmethylene)piperidin-4-one] | 91 ± 1.9 |  | 0.599 ± 0.024 | 50 | IC50 (eel AChE): 85 µM
18 | O=C1/C(=C/c2ccccc2)CN(C(=O)/C=C/c2cccc3ccccc23)C/C1=C\c1ccccc1 [3b, (3E,5E)-3,5-dibenzylidene-1-((E)-3-(naphthalen-1-yl)acryloyl)piperidin-4-one] | 90 ± 2.8 | 17 | 0.509 ± 0.062 | 55 | 
19 | O=C1/C(=C/c2cccc3ccccc23)CN(C(=O)/C=C/c2cccc3ccccc23)C/C1=C\c1cccc2ccccc12 [3c, (3E,5E)-1-((E)-3-(naphthalen-1-yl)acryloyl)-3,5-bis(naphthalen-1-ylmethylene)piperidin-4-one] | 88 ± 2.0 | 29 | −0.658 and −0.658 ± 0.061 | 37.5 | 
20 | O=C1/C(=C/c2ccc(F)cc2)CN(C(=O)C=Cc2ccccc2)C/C1=C\c1ccc(F)cc1 [3d, (3E,5E)-1-cinnamoyl-3,5-bis(4-fluorobenzylidene)piperidin-4-one] | 84 ± 1.7 | 31 | 0.237 ± 0.06 | 63.5 | 
21 | O=C1/C(=C/c2cccs2)CN(C(=O)/C=C/c2cccc3ccccc23)C/C1=C\c1cccs1 [3e, (3E,5E)-1-((E)-3-(naphthalen-1-yl)acryloyl)-3,5-bis(thiophen-2-ylmethylene)piperidin-4-one] | 91 ± 2.5 |  | 0.514 ± 0.039 | 52 | inhibition at 100 µM (bovine COX-2; bovine COX-2, 100 μM, n.a. = no activity under the experimental conditions, read-out: COX-2 (% Inhibition at 100 μM) ± SEM): 19%; IC50 (eel AChE): 70 µM
22 | O=C1/C(=C/c2ccc(F)cc2)CN(C(=O)/C=C/c2cccc3ccccc23)C/C1=C\c1ccc(F)cc1 [3f, (3E,5E)-3,5-bis(4-fluorobenzylidene)-1-((E)-3-(naphthalen-1-yl)acryloyl)piperidin-4-one] | 90 ± 2.4 | 24 | 0.564 ± 0.045 | 55 | 
23 | O=C1/C(=C/c2ccccc2)CN(C(=O)C=Cc2ccccc2)C/C1=C\c1ccccc1 [3g, (3E,5E)-3,5-dibenzylidene-1-cinnamoylpiperidin-4-one] | 53 ± 1.6 |  | 0.235 ± 0.039 |  | IC50 (eel AChE): 100 µM; pIC50 [4]: 4.09
24 | O=C1/C(=C/c2cccc3ccccc23)CN(C(=O)/C=C/c2ccc(O)c(O)c2)C/C1=C\c1cccc2ccccc12 [3h, (3E,5E)-1-((E)-3-(3,4-dihydroxyphenyl)acryloyl)-3,5-bis(naphthalen-1-ylmethylene)piperidin-4-one] | 93 ± 2.2 | 14 to 34 | −0.657 and −0.657 ± 0.013 | 34 | 
25 | COc1cc(/C=C/C(=O)CC(=O)/C=C/c2ccc(O)c(OC)c2)ccc1O [Curcumin, reference compound] |  |  | 0.175 ± 0.029 |  | inhibition at 100 µM [4]: 38%
26 | Cc1c(C)c2c(c(C)c1O)CCC(C)(C(=O)O)O2 (stereo not shown) [Trolox, reference compound] | 92 ± 2.1 |  |  |  | 
27 | (3E,5E)-3,5-bis((1H-imidazol-2-yl)methylene)piperidin-4-one [1f] |  |  |  |  | LOX (% Inhibition at 100 μM) ± SEM [1]: 36% ± 0.9
